Consider ten compounds from doi:10.1101/2021.06.10.447950v1 (biorxiv, 2021).

Assay in all cases: fluorogenic peptidase assay, initial rate
What all share (type): biochemical

For one test, the target named is cathepsin B (Homo sapiens, UniProt P07858).
A further test concerns the target cathepsin L (Homo sapiens, UniProt P07711).
The target in another test is T1, cathepsin K (Homo sapiens, UniProt P43235).
T1 sequence (P43235 115-329): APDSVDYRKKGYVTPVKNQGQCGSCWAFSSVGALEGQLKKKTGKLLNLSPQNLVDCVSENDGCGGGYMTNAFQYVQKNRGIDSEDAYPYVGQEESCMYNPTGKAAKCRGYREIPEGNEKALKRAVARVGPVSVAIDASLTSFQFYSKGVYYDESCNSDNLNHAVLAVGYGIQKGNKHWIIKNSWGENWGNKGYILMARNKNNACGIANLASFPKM

Sequence of cathepsin L (P07711 114-288): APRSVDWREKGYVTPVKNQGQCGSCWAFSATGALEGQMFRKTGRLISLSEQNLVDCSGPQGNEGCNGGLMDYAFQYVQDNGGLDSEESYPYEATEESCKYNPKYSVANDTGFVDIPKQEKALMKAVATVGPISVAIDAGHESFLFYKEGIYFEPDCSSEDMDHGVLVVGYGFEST
Sequence of cathepsin L (P07711 292-333): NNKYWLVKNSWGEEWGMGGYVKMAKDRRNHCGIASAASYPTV

Take `O=C[C@H](C[C@@H]1CCNC1=O)NC(=O)[C@H](CC1CCCCC1)NC(=O)c1cc2ccccc2[nH]1` [11a]: the IC50 against cathepsin B worked out at 4.9 ± 0.4 nM; against cathepsin L, 0.14 ± 0.04 nM; against cathepsin K, 1.4 ± 0.2 nM.
For the compound `O=C[C@H](C[C@@H]1CCNC1=O)NC(=O)[C@H](Cc1ccccc1)NC(=O)OCc1ccccc1` [MPI1], the IC50 on cathepsin B amounted to 25 ± 2 nM; against cathepsin L it was 0.079 ± 0.029 nM; at cathepsin K it was 0.88 ± 0.12 nM.
In the same order, the values of `O=C[C@H](C[C@@H]1CCNC1=O)NC(=O)[C@H](Cc1ccccc1)NC(=O)/C=C/c1ccc(Cl)cc1F` [MPI2] are 4.1 ± 0.4 nM, 0.19 ± 0.03 nM and 0.78 ± 0.06 nM.
Turning to `CC(C)C[C@H](NC(=O)[C@@H](NC(=O)OCc1ccccc1)C(C)C)C(=O)N[C@H](C=O)C[C@@H]1CCNC1=O` [MPI3], the IC50 at cathepsin B turned out to be 112 ± 10 nM; at cathepsin L it was 0.3 ± 0.07 nM; on cathepsin K, 1.18 ± 0.18 nM.
In the same order, the values of `CC(C)[C@H](NC(=O)OCc1ccccc1)C(=O)N[C@@H](Cc1ccccc1)C(=O)N[C@H](C=O)C[C@@H]1CCNC1=O` [MPI4] are 46 ± 3 nM, 0.33 ± 0.04 nM and 49 ± 16 nM.
For the compound `CC(C)[C@H](NC(=O)OCc1ccccc1)C(=O)N[C@@H](CC1CCCCC1)C(=O)N[C@H](C=O)C[C@@H]1CCNC1=O` [MPI5], the IC50 was determined as 80 ± 6 nM on cathepsin B, 2.3 ± 1.9 nM on cathepsin L and 134 ± 18 nM against cathepsin K.
As for `CC(C)C[C@H](NC(=O)[C@@H](NC(=O)OCc1ccccc1)[C@@H](C)OC(C)(C)C)C(=O)N[C@H](C=O)C[C@@H]1CCNC1=O` [MPI6], the figures for the half-maximal inhibitory concentration (IC50) against cathepsin B, on cathepsin L and against cathepsin K were 380 ± 21 nM, 0.45 ± 0.08 nM and 1.07 ± 0.21 nM, respectively.
On to `C[C@@H](OC(C)(C)C)[C@H](NC(=O)OCc1ccccc1)C(=O)N[C@@H](Cc1ccccc1)C(=O)N[C@H](C=O)C[C@@H]1CCNC1=O` [MPI7], for which the figures for the IC50 at cathepsin B, against cathepsin L and on cathepsin K were 64 ± 7 nM, 0.61 ± 0.15 nM and 51 ± 6 nM, respectively.
With `C[C@@H](OC(C)(C)C)[C@H](NC(=O)OCc1ccccc1)C(=O)N[C@@H](CC1CCCCC1)C(=O)N[C@H](C=O)C[C@@H]1CCNC1=O` [MPI8], on cathepsin B, inhibition was half-maximal at 230 ± 20 nM (IC50).
Turning to `CC(C)C[C@H](NC(=O)[C@@H](NC(=O)/C=C/c1ccc(Cl)cc1F)C(C)C)C(=O)N[C@H](C=O)C[C@@H]1CCNC1=O` [MPI9], the figures for the IC50 against cathepsin B, at cathepsin L and at cathepsin K were 147 ± 10 nM, 0.56 ± 0.06 nM and 1.5 ± 0.2 nM, respectively.

The IC50 is the concentration that inhibits the measured activity by half. A higher IC50 goes with lower potency.
